In patent publication US6762170B1, “2-(purin-9-yl)-tetrahydrofuran-3,4-diol derivatives” (SmithKlineBeecham Corporation, priority 1998, dated 2004):
Counter-ions that a name gives are not always drawn.

Tests used:
Type in all cases: cell-based
Adenosine 2a receptor = molecular target: T1, Adenosine 2a receptor (Homo sapiens, UniProt P29274); test: Agonist activity against adenosine 2a receptor subtype (CHO cells, cAMP response element/SPAP reporter); conditions: EC50 ratio to NECA; transfected CHO cells, basal cAMP reflected by SPAP
T1 construct: expressed in transfected cells; host or cells: Chinese hamster ovary (CHO) cells, co-transfected with a CRE-SPAP reporter
T1 sequence (P29274 whole entry): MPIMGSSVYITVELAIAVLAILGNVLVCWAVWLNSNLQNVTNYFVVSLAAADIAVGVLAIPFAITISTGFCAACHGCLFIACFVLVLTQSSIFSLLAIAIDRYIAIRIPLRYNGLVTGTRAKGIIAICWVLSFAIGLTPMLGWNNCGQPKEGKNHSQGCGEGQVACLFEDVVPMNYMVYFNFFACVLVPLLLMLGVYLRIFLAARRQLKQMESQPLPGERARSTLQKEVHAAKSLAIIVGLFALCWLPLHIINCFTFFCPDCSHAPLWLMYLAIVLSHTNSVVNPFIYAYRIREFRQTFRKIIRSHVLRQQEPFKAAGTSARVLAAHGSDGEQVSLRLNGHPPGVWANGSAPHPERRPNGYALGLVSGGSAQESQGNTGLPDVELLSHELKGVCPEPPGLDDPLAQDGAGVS
Experimental: (§1) (1) Agonist Activity Against Adenosine 2a, Adenosine 1 and Adenosine 3 Receptor Subtypes.
(§2) Agonist selectivity of compounds against other human adenosine receptors is determined using Chinese hamster ovary (CHO) cells transfected with the gene for the relevant human adenosine receptor following a method based on that of Castanon and Spevak, 1994. The CHO cells are also transfected with cyclic AMP response elements promoting the gene for secreted placental alkaline phosphatase (SPAP) (Wood, 1995). The effect of test compounds may be determined by their effects on basal levels of cAMP (A2a) or on forskolin-enhanced cAMP (A1 and A3) as reflected by changes in levels of SPAP. EC50 values for compounds may then be determined as a ratio to that of the non-selective agonist N-ethyl carboxamide adenosine (NECA).
(§3) Values given in the Table are EC50 values as a ratio of that of NECA.

Adenosine 1 receptor = molecular target: T2, Adenosine 1 receptor (Homo sapiens, UniProt P30542); test: Agonist activity against adenosine 1 receptor subtype (CHO cells, forskolin-enhanced cAMP, SPAP reporter); conditions: EC50 ratio to NECA; transfected CHO cells, forskolin-enhanced cAMP reflected by SPAP
T2 construct: expressed in transfected cells; host or cells: Chinese hamster ovary (CHO) cells, co-transfected with a CRE-SPAP reporter
T2 sequence (P30542 1-326): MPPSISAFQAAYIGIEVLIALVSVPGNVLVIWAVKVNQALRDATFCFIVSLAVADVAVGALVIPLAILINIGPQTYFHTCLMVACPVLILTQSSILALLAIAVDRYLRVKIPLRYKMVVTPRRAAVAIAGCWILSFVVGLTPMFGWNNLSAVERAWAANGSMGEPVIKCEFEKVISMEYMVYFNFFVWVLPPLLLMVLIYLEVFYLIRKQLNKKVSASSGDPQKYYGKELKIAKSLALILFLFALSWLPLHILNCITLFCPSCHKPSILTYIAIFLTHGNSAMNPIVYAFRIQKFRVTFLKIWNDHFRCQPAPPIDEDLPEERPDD
Experimental: as §1, §2, §3

Adenosine 3 receptor = molecular target: T3, Adenosine 3 receptor (Homo sapiens, UniProt P0DMS8); test: Agonist activity against adenosine 3 receptor subtype (CHO cells, forskolin-enhanced cAMP, SPAP reporter); conditions: EC50 ratio to NECA; transfected CHO cells, forskolin-enhanced cAMP reflected by SPAP
T3 construct: expressed in transfected cells; host or cells: Chinese hamster ovary (CHO) cells, co-transfected with a CRE-SPAP reporter
T3 sequence (P0DMS8 1-318): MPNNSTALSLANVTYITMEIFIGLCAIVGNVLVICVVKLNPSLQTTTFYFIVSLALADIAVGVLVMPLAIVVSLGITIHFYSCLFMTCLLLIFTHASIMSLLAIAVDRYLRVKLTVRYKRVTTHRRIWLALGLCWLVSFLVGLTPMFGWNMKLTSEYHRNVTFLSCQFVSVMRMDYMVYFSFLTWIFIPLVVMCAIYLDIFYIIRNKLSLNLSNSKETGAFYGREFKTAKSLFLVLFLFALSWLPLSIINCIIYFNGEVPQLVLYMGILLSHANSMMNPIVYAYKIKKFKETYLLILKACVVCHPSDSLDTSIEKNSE
Experimental: as §1, §2, §3

| Compound | A2a (EC50 values as a ratio of that of NECA) (Adenosine 2a receptor) | A1 (EC50 values as a ratio of that of NECA) (Adenosine 1 receptor) | A3 (EC50 values as a ratio of that of NECA) (Adenosine 3 receptor) |
| --- | --- | --- | --- |
| CCc1cc([C@H]2O[C@@H](n3cnc4c(NC(CC)CC)nc(NCCNc5ccccn5)nc43)[C@H](O)[C@@H]2O)on1.O=CO.O=CO [Example 53, (2S,3S,4R,5R)-2-(3-Ethyl-isoxazol-5-yl)-5-{6-(1-ethyl-propylamino)-2-[2-(pyridin-2-ylamino)-ethylamino]-purin-9-yl}-tetrahydro-furan-3,4-diol diformate] | 2.11 | 128.9 | >229 |
| (2R,3R,4S,5S)-2-{6-(1-Ethyl-propylamino)-2-[2-(1-methyl-1H-imidazol-4-yl)-ethylamino]-purin-9yl}-5-(3-methyl-isoxazol-5-yl)-tetrahydro-furan-3,4-diol diformate [Example 59] | 0.13 | 194.3 | >385 |
| CCc1cc(C2OC(n3cnc4c(NCC(c5ccccc5)c5ccccc5)nc(NC(CO)Cc5ccccc5)nc43)C(O)C2O)on1 [Example 17, (2R,3R,4S,5S)-2-[6-(2,2-Diphenyl-ethylamino)-2-(1S-hydroxymethyl-2-phenyl-ethylamino)-purin-9-yl]-5-(3-ethyl-isoxazol-5-yl)-tetrahydro-furan-3,4-diol formate] | 0.34 | 1172 | >298 |
| CCc1cc([C@H]2O[C@@H](n3cnc4c(NCCC(C)(C)C)nc(NCCN5CCCCC5)nc43)[C@H](O)[C@@H]2O)on1.O=CO.O=CO [Example 41, (2R,3R,4S,5S)-2-[6-(3,3-Dimethyl-butylamino)-2-(2-piperidin-1-yl-ethylamino)-purin-9-yl]-5-(3-ethyl-isoxazol-5-yl)-tetrahydro-furan-3,4-diol diformate] | 27.39 | 2907.96 | >395 |
| CCc1cc(C2OC(n3cnc4c(NC(CC)CC)nc(NC5CCNC5)nc43)C(O)C2O)on1 [Example 36, (2S,3S,4R,5R)-2-(3-Ethyl-isoxazol-5-yl)-5-[6-(1(-ethyl-propylamino)-2-(pyrrolidin-3R-ylamino)-purin-9-yl]-tetrahydro-furan-3,4-diol diformate] | 4.7 | 68.32 | >207 |
| CCc1cc(C2OC(n3cnc4c(NC5CCS(=O)(=O)CC5)nc(NC5CCC(N)CC5)nc43)C(O)C2O)on1 [Example 32, (2R,3R,4S,5S)-2-[2-trans-4-Amino-cyclohexylamino)-6-(1-dioxo-hexahydro-1λ6-thiopyran-4-ylamino)-purin-9-yl]-5-(3-ethyl-isoxazol-5-yl)-tetrahydro-furan-3,4-diol diformate] | 3.79 | 31.75 | >176 |
| CCc1cc(C2OC(n3cnc4c(NCCS(=O)(=O)NC)nc(NCCN5CCCCC5)nc43)C(O)C2O)on1 (stereo not drawn) [Example 11, 2-[9-[5S-(3-Ethyl-isoxazol-5-yl)-3R,4S-dihydroxy-tetrahydro-furan-2R-yl]-2-(2-piperidin-1-yl-ethylamino)-9H-purin-6-ylamino]-ethanesulfonic acid methylamide diformate] | 3.66 | 32.9 | >303 |
| CCc1cc([C@H]2O[C@@H](n3cnc4c(NC(CC)CC)nc(NCCN5CCCCC5)nc43)[C@H](O)[C@@H]2O)on1.O=CO.O=CO [Example 6, (2S,3S,4R,5R)-2-(3-Ethyl-isoxazol-5-yl)-5-[6-(1-ethyl-propylamino)-2-(2-piperidin-1-yl-ethylamino)-purin-9-yl]-tetrahydro-furan-3,4-diol diformate] | 0.49 | 66.4 | >393 |
| CCc1cc([C@H]2O[C@@H](n3cnc4c(NC5CCOCC5)nc(NCCN5CCCCC5)nc43)[C@H](O)[C@@H]2O)on1.O=CO.O=CO [Example 14, (2S,3S,4R,5R)-2-(3-Ethyl-isoxazol-5-yl)-5-[2-(2-piperidin-1-yl-ethylamino)-6-(tetrahydro-pyran-4-ylamino)-purin-9-yl]-tetrahydro-furan-3,4-diol diformate] | 4.99 | 77.1 | >254 |
| CCc1cc([C@H]2O[C@@H](n3cnc4c(NCC(c5ccccc5)c5ccccc5)nc(NCCNc5ccccn5)nc43)[C@H](O)[C@@H]2O)on1.O=CO.O=CO [Example 16, (2R,3R,4S,5S)-2-{6-(2,2-Diphenyl-ethylamino)-2-[2-(pyridin-2-ylamino)-ethylamino]-purin-9-yl}-5-(3-ethyl-isoxazol-5-yl)-tetrahydro-furan-3,4-diol diformate] | 0.35 | 442 | >1004 |
| CCc1cc(C2OC(n3cnc4c(NC(CC)CC)nc(NC5CCC(N)CC5)nc43)C(O)C2O)on1.O=CO.O=CO [Example 39, (2R,3R,4S,5S)-2-[2(trans-4-Amino-cyclohexylamino)-6(1-ethyl-propylamino)-purin-9-yl]-5-(3-ethyl-isoxazol-5-yl)-tetrahydro-furan-3,4-diol diformate] | 2.12 | 86.8 | >85 |
| CCc1cc(C2OC(n3cnc4c(N)nc(NCCc5ccc(S(N)(=O)=O)cc5)nc43)C(O)C2O)on1 (stereo not drawn) [Example 18, 4-(2-{6-Amino-9-[5S-(3-ethyl-isoxazol-5-yl)-3R,4S-dihydroxy-tetrahydro-furan-2R-yl]-9H-purin-2-ylamino}-benzenesulfonamide formate] | 0.72 | 2580 | >460 |
| CCc1cc([C@H]2O[C@@H](n3cnc4c(NC5CCSCC5)nc(NCCN5CCCCC5)nc43)[C@H](O)[C@@H]2O)on1.O=CO.O=CO [Example 12, (2S,3S,4R,5R)-2-(3-Ethyl-isoxazol-5-yl)-5-[2-(2-piperidin-1-yl-ethylamino)-6-(tetrahydro-thiopyran-4-ylamino)-purin-9-yl]-tetrahydro-furan-3,4-diol diformate] | 3.39 | 260.3 | >410 |
| CCc1cc(C2OC(n3cnc4c(NCCS(=O)(=O)NC)nc(NCCNC(=N)N)nc43)C(O)C2O)on1 (stereo not drawn) [Example 25, 2-[2-9-[5S-(3-Ethyl-isoxazol-5-yl)-3R,4S-dihydroxy-tetrahydro-furan-2R-yl]-2-(2-guanidino-ethylamino)-9H-purin-6-ylamino]-ethanesulfonic acid methylamide diformate] | 5.46 | 103.8 | >198 |
| CCC(CC)Nc1nc(NCCc2cn(C)cn2)nc2c1ncn2[C@@H]1O[C@H](c2cc(C(C)O)no2)[C@@H](O)[C@H]1O.O=CO.O=CO (stereo partly drawn) [Example 58, (2R,3R,4S,5S)-2-{6-(1-Ethyl-propylamino)-2-[2-(1-methyl-1H-imidazol-4-yl)-ethylamino]-purin-9-yl}-5-[3-(1-hydroxy-ethyl)-isoxazol-5-yl]-tetrahydro-furan-3,4-diol diformate] | 0.244 | 812.2 | >525 |
| CCC(CC)Nc1nc(NCCN2CCCCC2)nc2c1ncn2C1OC(c2cc(Br)no2)C(O)C1O.O=CO.O=CO [Example 67, (2S,3S,4R,5R)-2-(3-Bromo-isoxazol-5-yl)-5-[6-(1-ethyl-propylamino)-2-(2-piperidin-1-yl-ethylamino)-purin-9-yl]-tetrahydro-furan-3,4-diol diformate] | 2.59 | 219.1 | >238 |
